Legend:
[1] = target: Dual specificity mitogen-activated protein kinase kinase 1 (Homo sapiens, UniProt Q02750); assay: Inhibition of recombinant human MEK1 using inactivated ERK2 as substrate incubate for 60 mins by LANCE assay
[2] = Cmax in Sprague-Dawley rat at 3 mg/kg, po measured up to 24 hrs by LC-MS/MS analysis; format: ADME, organism-based; parameters: route oral, dose 3 mg/kg, time <=24; details: in vivo
[3] = target: Ribosomal protein S6 kinase beta-1 (Homo sapiens, UniProt P23443); assay: Inhibition of recombinant human p70S6K using CREBtide as substrate incubate for 15 mins by LANCE assay
[4] = target: Ribosomal protein S6 kinase alpha-6 (Homo sapiens, UniProt Q9UK32); assay: Inhibition of RSK4 (unknown origin)
Chain of Ribosomal protein S6 kinase alpha-6 (Q9UK32 whole entry): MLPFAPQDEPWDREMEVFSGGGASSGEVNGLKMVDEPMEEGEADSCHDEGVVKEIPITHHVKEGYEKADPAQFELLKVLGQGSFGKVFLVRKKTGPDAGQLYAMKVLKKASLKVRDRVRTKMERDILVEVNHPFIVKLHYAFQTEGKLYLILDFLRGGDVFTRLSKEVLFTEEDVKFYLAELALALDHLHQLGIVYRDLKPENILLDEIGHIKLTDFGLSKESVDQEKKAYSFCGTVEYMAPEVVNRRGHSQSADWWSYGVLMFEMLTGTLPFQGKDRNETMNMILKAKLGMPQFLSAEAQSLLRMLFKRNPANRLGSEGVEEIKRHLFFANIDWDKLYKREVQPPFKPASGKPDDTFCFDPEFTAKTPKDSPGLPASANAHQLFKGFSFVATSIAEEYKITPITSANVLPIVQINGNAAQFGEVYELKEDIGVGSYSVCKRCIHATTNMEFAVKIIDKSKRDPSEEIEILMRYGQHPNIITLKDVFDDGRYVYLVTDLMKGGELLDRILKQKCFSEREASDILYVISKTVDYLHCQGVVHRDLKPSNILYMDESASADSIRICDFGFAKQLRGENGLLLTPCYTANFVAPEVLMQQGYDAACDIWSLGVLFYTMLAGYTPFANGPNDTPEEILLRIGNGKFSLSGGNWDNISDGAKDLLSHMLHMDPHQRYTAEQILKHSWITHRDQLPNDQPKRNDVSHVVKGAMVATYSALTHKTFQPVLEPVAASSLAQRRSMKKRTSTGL

[5] = target: Tyrosine-protein kinase JAK3 (Homo sapiens, UniProt P52333); assay: Inhibition of recombinant human JAK3 using Ulight-CAGAGAIETDKEYYTVKD as substrate incubate for 60 mins by LANCE assay
Chain of Tyrosine-protein kinase JAK3 (P52333 whole entry): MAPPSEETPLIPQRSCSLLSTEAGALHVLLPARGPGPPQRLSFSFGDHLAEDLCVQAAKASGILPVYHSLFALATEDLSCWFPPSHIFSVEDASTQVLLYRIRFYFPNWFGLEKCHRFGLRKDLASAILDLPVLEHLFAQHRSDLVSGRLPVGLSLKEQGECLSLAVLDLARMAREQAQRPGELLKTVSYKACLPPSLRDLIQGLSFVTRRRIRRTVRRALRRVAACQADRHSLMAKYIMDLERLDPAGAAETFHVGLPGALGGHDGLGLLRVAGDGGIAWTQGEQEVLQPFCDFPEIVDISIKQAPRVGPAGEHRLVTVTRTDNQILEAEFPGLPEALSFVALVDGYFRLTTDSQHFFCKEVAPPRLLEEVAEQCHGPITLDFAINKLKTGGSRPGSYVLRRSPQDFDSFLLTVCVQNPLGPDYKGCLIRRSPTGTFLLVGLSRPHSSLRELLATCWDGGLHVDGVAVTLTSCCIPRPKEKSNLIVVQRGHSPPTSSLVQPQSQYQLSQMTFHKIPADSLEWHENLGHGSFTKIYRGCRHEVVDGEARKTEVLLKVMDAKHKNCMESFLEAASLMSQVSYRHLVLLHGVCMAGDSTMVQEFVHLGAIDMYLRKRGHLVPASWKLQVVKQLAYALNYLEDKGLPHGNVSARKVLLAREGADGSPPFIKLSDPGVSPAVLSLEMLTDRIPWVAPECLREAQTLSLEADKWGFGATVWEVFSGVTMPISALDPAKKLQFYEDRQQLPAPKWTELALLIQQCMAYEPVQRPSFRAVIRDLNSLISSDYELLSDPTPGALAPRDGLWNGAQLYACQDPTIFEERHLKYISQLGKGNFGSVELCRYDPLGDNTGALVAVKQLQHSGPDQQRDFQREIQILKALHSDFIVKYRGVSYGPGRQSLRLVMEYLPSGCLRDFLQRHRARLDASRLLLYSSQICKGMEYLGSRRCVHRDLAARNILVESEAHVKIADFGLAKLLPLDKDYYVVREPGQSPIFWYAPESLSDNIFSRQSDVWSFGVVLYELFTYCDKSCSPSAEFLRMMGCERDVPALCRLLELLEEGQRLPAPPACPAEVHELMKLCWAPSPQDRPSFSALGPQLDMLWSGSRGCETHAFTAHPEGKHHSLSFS

[6] = target: Receptor tyrosine-protein kinase erbB-4 (Homo sapiens, UniProt Q15303); assay: Inhibition of ErBB4 (unknown origin)
Chain of Receptor tyrosine-protein kinase erbB-4 (Q15303 whole entry): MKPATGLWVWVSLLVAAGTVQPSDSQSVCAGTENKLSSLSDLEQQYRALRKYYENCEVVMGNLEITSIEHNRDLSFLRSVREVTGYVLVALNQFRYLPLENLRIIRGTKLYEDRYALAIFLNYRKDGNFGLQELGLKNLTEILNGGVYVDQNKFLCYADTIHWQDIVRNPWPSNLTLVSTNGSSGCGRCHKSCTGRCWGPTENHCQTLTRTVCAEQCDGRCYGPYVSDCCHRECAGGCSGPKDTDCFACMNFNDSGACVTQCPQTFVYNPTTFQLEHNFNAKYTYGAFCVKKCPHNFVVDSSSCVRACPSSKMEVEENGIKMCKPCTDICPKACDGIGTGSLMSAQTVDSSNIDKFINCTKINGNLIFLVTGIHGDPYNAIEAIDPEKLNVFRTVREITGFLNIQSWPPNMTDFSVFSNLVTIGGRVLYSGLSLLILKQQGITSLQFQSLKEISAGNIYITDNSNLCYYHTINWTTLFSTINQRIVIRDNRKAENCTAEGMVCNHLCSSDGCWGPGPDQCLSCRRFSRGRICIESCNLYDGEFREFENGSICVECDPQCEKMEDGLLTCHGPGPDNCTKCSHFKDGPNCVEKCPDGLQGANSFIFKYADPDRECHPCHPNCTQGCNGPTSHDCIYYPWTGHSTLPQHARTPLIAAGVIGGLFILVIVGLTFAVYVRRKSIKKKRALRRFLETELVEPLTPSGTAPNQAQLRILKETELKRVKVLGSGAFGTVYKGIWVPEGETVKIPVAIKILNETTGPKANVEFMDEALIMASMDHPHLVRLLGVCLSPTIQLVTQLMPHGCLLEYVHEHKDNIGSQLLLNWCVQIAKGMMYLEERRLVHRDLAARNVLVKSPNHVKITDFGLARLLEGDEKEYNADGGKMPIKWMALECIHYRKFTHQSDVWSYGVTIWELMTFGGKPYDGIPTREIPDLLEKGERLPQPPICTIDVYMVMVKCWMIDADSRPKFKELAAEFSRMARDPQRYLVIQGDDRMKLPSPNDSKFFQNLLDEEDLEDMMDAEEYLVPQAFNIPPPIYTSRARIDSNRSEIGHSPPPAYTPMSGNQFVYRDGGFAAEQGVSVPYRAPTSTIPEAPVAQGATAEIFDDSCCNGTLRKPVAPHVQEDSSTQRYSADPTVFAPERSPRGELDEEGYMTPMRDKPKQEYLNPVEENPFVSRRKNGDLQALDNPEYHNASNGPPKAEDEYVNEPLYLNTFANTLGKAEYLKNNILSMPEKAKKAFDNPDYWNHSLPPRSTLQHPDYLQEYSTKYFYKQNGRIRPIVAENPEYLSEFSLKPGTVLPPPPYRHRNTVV

[7] = target: Dual specificity mitogen-activated protein kinase kinase 6 (Homo sapiens, UniProt P52564); assay: Inhibition of MKK6 (unknown origin)
Chain of Dual specificity mitogen-activated protein kinase kinase 6 (P52564 whole entry): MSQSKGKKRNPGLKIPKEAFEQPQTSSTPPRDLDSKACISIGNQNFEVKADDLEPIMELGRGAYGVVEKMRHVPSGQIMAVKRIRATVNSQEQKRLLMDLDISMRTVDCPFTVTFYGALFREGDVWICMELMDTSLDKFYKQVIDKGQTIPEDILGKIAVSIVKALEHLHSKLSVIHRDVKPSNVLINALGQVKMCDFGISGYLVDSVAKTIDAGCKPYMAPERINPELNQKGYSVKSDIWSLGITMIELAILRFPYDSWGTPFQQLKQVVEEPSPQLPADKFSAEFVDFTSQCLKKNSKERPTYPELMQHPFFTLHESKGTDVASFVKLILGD

[8] = Metabolic stability in human liver microsomes assessed as intrinsic clearance at 100 uM/L measured upto 90 mins by LC-MS/MS analysis; format: ADME, Microsome; details: 1.5 h
[9] = Toxicity in BALB/c mouse assessed as effect on spleen at 2 g/kg, po measured after 7 days of administration by histopathological analysis; details: in vivo, 168 h
[10] = system: THP-1; assay: Cytotoxicity against human THP-1 cells assessed as reduction in cell viability incubated for 72 hrs by MTT assay; format: ADME, cell-based; details: THP-1, 72 h
[11] = target: T1, Tyrosine-protein kinase BTK (Homo sapiens, UniProt Q06187); assay: Inhibition of BTK (unknown origin) by caliper mobility shift assay
T1 sequence (Q06187 whole entry): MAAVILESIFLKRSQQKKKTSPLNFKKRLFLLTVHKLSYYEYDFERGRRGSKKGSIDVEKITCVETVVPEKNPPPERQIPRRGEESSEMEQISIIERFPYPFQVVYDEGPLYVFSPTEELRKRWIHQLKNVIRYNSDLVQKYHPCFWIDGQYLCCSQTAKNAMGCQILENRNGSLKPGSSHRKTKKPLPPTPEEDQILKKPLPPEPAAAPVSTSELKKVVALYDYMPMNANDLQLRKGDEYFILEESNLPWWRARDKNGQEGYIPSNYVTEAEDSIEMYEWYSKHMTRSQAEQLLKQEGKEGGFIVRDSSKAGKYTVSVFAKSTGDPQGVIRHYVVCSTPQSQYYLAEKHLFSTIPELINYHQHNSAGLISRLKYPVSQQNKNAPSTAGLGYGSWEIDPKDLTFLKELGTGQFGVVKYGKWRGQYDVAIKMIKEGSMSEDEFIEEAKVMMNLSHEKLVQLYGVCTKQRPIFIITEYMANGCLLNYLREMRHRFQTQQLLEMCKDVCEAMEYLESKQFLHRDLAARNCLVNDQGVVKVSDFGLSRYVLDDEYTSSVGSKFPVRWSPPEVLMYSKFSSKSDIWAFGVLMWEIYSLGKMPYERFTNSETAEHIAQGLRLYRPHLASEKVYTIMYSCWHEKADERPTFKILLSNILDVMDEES

[12] = target: Tyrosine-protein kinase SYK (Homo sapiens, UniProt P43405); assay: Inhibition of SYK (unknown origin)
[13] = AUC (0 to t) in Sprague-Dawley rat at 3 mg/kg, po measured up to 24 hrs by LC-MS/MS analysis; format: ADME, organism-based; parameters: route oral, dose 3 mg/kg, time <=24; details: in vivo
[14] = target: T1, Tyrosine-protein kinase BTK; assay: Inhibition of BTK in human U2932 cells assessed as reduction in BTK Y223 phosphorylation incubated for 1 hr by Western blot analysis; format: cell-based; details: dose 0.03-10 µM

Chain of Dual specificity mitogen-activated protein kinase kinase 1 (Q02750 whole entry): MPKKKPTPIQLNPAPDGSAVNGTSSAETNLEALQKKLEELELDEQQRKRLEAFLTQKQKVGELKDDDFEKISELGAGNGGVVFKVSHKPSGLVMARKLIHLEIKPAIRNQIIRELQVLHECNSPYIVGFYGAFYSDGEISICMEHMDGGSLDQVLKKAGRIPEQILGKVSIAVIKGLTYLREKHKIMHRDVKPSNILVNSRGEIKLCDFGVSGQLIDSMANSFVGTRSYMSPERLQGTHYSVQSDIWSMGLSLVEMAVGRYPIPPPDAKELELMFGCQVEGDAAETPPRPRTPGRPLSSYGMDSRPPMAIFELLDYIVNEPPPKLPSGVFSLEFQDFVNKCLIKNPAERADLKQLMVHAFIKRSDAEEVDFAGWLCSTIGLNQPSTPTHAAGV

`C=CC(=O)N1CCC(Cn2cc(-c3ccc4c(c3)OCO4)c3c(N)ncnc32)CC1` showed an IC50 [1] greater than 10 µM, a Cmax [2] of 258 ng/mL and an IC50 [3] greater than 10 µM. The IC50 [4] was greater than 10 µM, the IC50 [5] was greater than 10 µM and the IC50 [6] was greater than 10 µM. For the same compound, the IC50 [7] was greater than 10 µM, the CLH [8] was 4.2 µL/min/mg and the Activity [9] was “Non-Toxic”. The IC50 [10] was 38.9 µM, the IC50 [11] was 0.0217 µM and the IC50 [12] was greater than 10 µM. The AUC(0-t) at 24 h [13] was 1240 ng·h/mL and the inhibition [14] was “Dose-dependent effect”.

— ChEMBL document CHEMBL4715815, “Design, synthesis and biological evaluation of 7H-pyrrolo[2,3-d]pyrimidin-4-amine derivatives as selective Btk inhibitors with improved pharmacokinetic properties for the treatment of rheumatoid arthritis” (Eur J Med Chem, 2018)
